Laboratory results as given in ChEMBL document CHEMBL1201862, “PubChem BioAssay data set” (2004).
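Each compound was tested at five concentrations against cells in 96-well plates for 48 hours. At the GI50, growth is halved.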 Active and inactive are the calls of the source. No stated cut-off is given here; in the data, active = GI50 up to about 1.1 µM and inactive = higher.

How the values were obtained:
Assay in all cases: DTP human tumour cell line panel, 48 h
MOLT-4 = system: MOLT-4
CCRF-CEM = system: CCRF-CEM
SF-268 = system: SF-268
OVCAR-8 = system: OVCAR-8
TK-10 = system: TK-10
HL-60 = system: HL-60
NCI-H226 = system: NCI-H226
SK-MEL-5 = system: SK-MEL-5
SK-OV-3 = system: SK-OV-3
HT-29 = system: HT-29
SF-295 = system: SF-295
SNB-19 = system: SNB-19
UACC-62 = system: UACC-62
HCT-15 = system: HCT-15
NCI-H23 = system: NCI-H23
HOP-62 = system: HOP-62
UACC-257 = system: UACC-257
SF-539 = system: SF-539

CNc1ccc(/C=C2\C=Cc3ccccc32)cc1
GI50 (MOLT-4): 41.9 µM (inactive)
GI50 (CCRF-CEM): 43.4 µM (inactive)
GI50 (SF-268): 5.55 µM (inactive)
GI50 (OVCAR-8): 64.3 µM (inactive)
GI50 (TK-10): 23.9 µM (inactive)
GI50 (HL-60): 4.45 µM (inactive)
GI50 (NCI-H226): 25.1 µM (inactive)
GI50 (SK-MEL-5): 26.5 µM (inactive)
GI50 (SK-OV-3): 26.5 µM (inactive)
GI50 (HT-29): 18.7 µM (inactive)
GI50 (SF-295): 31.3 µM (inactive)
GI50 (SNB-19): 61.4 µM (inactive)
GI50 (UACC-62): 20.1 µM (inactive)
GI50 (HCT-15): 20.9 µM
GI50 (NCI-H23): 16.7 µM (inactive)
GI50 (HOP-62): 18.9 µM (inactive)
GI50 (UACC-257): 23.4 µM (inactive)
GI50 (SF-539): 93.3 µM (inactive)

N#CCC(=O)N/N=C(\C(=O)Nc1ccc(Cl)c(Cl)c1)C1CN(c2ccccc2)N=C1N (stereo not drawn)
GI50 (MOLT-4): 49.8 µM (inactive)
GI50 (CCRF-CEM): 54 µM (inactive)
GI50 (SF-268): > 100 µM (inactive)
GI50 (OVCAR-8): > 100 µM (inactive)
GI50 (TK-10): > 100 µM (inactive)
GI50 (HL-60): > 100 µM (inactive)
GI50 (NCI-H226): > 100 µM (inactive)
GI50 (SK-MEL-5): > 100 µM (inactive)
GI50 (SK-OV-3): > 100 µM (inactive)
GI50 (HT-29): > 100 µM (inactive)
GI50 (SF-295): > 100 µM (inactive)
GI50 (UACC-62): > 100 µM (inactive)
GI50 (HCT-15): > 100 µM
GI50 (NCI-H23): > 100 µM (inactive)
GI50 (HOP-62): > 100 µM (inactive)
GI50 (UACC-257): > 100 µM (inactive)
GI50 (SF-539): > 100 µM (inactive)

COc1ccc(/C=C/C(=O)c2sc(-c3cccnc3)nc2C)cc1
GI50 (MOLT-4): 16.7 µM (inactive)
GI50 (CCRF-CEM): 28.6 µM (inactive)
GI50 (SF-268): 74.6 µM (inactive)
GI50 (OVCAR-8): 35.7 µM (inactive)
GI50 (TK-10): 38.6 µM (inactive)
GI50 (HL-60): 20.4 µM (inactive)
GI50 (NCI-H226): 23.8 µM (inactive)
GI50 (SK-MEL-5): 30.3 µM (inactive)
GI50 (SK-OV-3): 82.6 µM (inactive)
GI50 (HT-29): 36.9 µM (inactive)
GI50 (SF-295): 35.8 µM (inactive)
GI50 (UACC-62): 46.3 µM (inactive)
GI50 (HCT-15): 45.3 µM
GI50 (NCI-H23): 75.5 µM (inactive)
GI50 (HOP-62): 63.7 µM (inactive)
GI50 (UACC-257): > 100 µM (inactive)
GI50 (SF-539): 21.1 µM (inactive)

CC1=CC(=O)C(C)(C2=NC(C)(C)CO2)c2ccccc21 (stereo not drawn)
GI50 (MOLT-4): > 100 µM (inactive)
GI50 (CCRF-CEM): > 100 µM (inactive)
GI50 (SF-268): > 100 µM (inactive)
GI50 (OVCAR-8): > 100 µM (inactive)
GI50 (TK-10): > 100 µM (inactive)
GI50 (HL-60): > 100 µM (inactive)
GI50 (NCI-H226): > 100 µM (inactive)
GI50 (SK-MEL-5): > 100 µM (inactive)
GI50 (SK-OV-3): > 100 µM (inactive)
GI50 (HT-29): > 100 µM (inactive)
GI50 (SF-295): > 100 µM (inactive)
GI50 (SNB-19): > 100 µM (inactive)
GI50 (UACC-62): > 100 µM (inactive)
GI50 (HCT-15): > 100 µM
GI50 (NCI-H23): > 100 µM (inactive)
GI50 (HOP-62): > 100 µM (inactive)
GI50 (UACC-257): > 100 µM (inactive)
GI50 (SF-539): > 100 µM (inactive)

Cc1cc(=O)oc2c(C)c(OCCCOc3ccc4c(C)cc(=O)oc4c3C)ccc12
GI50 (MOLT-4): > 100 µM (inactive)
GI50 (CCRF-CEM): > 100 µM (inactive)
GI50 (SF-268): > 100 µM (inactive)
GI50 (OVCAR-8): > 100 µM (inactive)
GI50 (TK-10): > 100 µM (inactive)
GI50 (HL-60): > 100 µM (inactive)
GI50 (SK-MEL-5): > 100 µM (inactive)
GI50 (SK-OV-3): > 100 µM (inactive)
GI50 (HT-29): > 100 µM (inactive)
GI50 (SF-295): > 100 µM (inactive)
GI50 (SNB-19): > 100 µM (inactive)
GI50 (UACC-62): > 100 µM (inactive)
GI50 (HCT-15): > 100 µM
GI50 (NCI-H23): > 100 µM (inactive)
GI50 (HOP-62): > 100 µM (inactive)
GI50 (UACC-257): > 100 µM (inactive)
GI50 (SF-539): > 100 µM (inactive)

Cn1cc(C(=O)C2CCCCC2)ccc1=O
GI50 (MOLT-4): > 100 µM (inactive)
GI50 (CCRF-CEM): > 100 µM (inactive)
GI50 (SF-268): > 100 µM (inactive)
GI50 (OVCAR-8): > 100 µM (inactive)
GI50 (TK-10): > 100 µM (inactive)
GI50 (HL-60): > 100 µM (inactive)
GI50 (NCI-H226): > 100 µM (inactive)
GI50 (SK-MEL-5): > 100 µM (inactive)
GI50 (SK-OV-3): > 100 µM (inactive)
GI50 (HT-29): > 100 µM (inactive)
GI50 (SF-295): > 100 µM (inactive)
GI50 (SNB-19): > 100 µM (inactive)
GI50 (UACC-62): > 100 µM (inactive)
GI50 (HCT-15): > 100 µM
GI50 (NCI-H23): > 100 µM (inactive)
GI50 (HOP-62): > 100 µM (inactive)
GI50 (SF-539): > 100 µM (inactive)

O=S1(=O)OCCOS(=O)(=O)C1(Br)Br
GI50 (MOLT-4): > 100 µM (inactive)
GI50 (CCRF-CEM): > 100 µM (inactive)
GI50 (SF-268): > 100 µM (inactive)
GI50 (OVCAR-8): > 100 µM (inactive)
GI50 (TK-10): > 100 µM (inactive)
GI50 (HL-60): > 100 µM (inactive)
GI50 (NCI-H226): 0.375 µM (active)
GI50 (SK-MEL-5): > 100 µM (inactive)
GI50 (SK-OV-3): > 100 µM (inactive)
GI50 (HT-29): > 100 µM (inactive)
GI50 (SF-295): > 100 µM (inactive)
GI50 (SNB-19): 80.7 µM (inactive)
GI50 (UACC-62): > 100 µM (inactive)
GI50 (NCI-H23): > 100 µM (inactive)
GI50 (HOP-62): > 100 µM (inactive)
GI50 (UACC-257): > 100 µM (inactive)
GI50 (SF-539): > 100 µM (inactive)

Cc1c2c(cc3c(=O)ccn(CCN(C)C)c13)c(=O)ccn2CCN(C)C
GI50 (MOLT-4): 3.96 µM (inactive)
GI50 (CCRF-CEM): 5.87 µM (inactive)
GI50 (SF-268): 6.93 µM (inactive)
GI50 (OVCAR-8): 4.76 µM (inactive)
GI50 (TK-10): 11.7 µM (inactive)
GI50 (HL-60): 2.24 µM (inactive)
GI50 (NCI-H226): 14 µM (inactive)
GI50 (SK-MEL-5): 20 µM (inactive)
GI50 (SK-OV-3): 8.61 µM (inactive)
GI50 (SF-295): 7.31 µM (inactive)
GI50 (SNB-19): 8.34 µM (inactive)
GI50 (UACC-62): 17.2 µM (inactive)
GI50 (HCT-15): 4.5 µM
GI50 (NCI-H23): 14.9 µM (inactive)
GI50 (HOP-62): 6.62 µM (inactive)
GI50 (UACC-257): 18.3 µM (inactive)
GI50 (SF-539): 15 µM (inactive)
